Measured values: patent US20220041578A1, “ISOINDOLINE COMPOUND, AND PREPARATION METHOD, PHARMACEUTICAL COMPOSITION, AND APPLICATION OF ISOINDOLINE COMPOUND” (Shanghai Institute of Meteria Medica, Chinese Academy of …, priority 2018, published 2022)

Columns and labels:
MM.1S cells = experiment: Effect of the compound on the proliferation of MM.1S cells (MTS); format: cell-based; conditions: Homo sapiens, MM1.S, 168 h, 7 days, read-out: Cell inhibitory activity (IC50)
Method: MM.1S cells were cultured with 1640 plus 10% fetal bovine serum and collected. The cell concentration was diluted according to the action time of 7 days, and 180 ul cell suspension was added to each well of the 96-well cell plate to make the cell count to be 20,000. 20 ul of DMSO with a final concentration of 0.2% was added to the control cell wells. The compound was diluted 5-fold with the 10 mM stock solution, and 20 ul was also added to the compound cell wells (the final concentration of DMSO is 0.2%). The cells were placed in a 37° C., 5% CO2 incubator and incubated for 7 days. After preparing the reaction solution according to the MTS kit (Promega, G5430), 20 μL was added to each well, incubated in a 37° C., 5% CO2 incubator for 3-4 h. Read the 490 nm absorbance value with a microtiter plate, and used the 690 nm absorbance value as the background value and OD490-OD690 as the final initial data. The formula for calculating the inhibition rate of the compound is: inhibition rate=(OD DMSO-ODcompound)/(ODDMSO-Oblank)×100%. The compound's proliferation inhibition IC50 was fitted by Graph Pad Prism 5.0. The experiment was repeated three times, and three parallel experiments were used to calculate the average and standard deviation each time.

Mino cells = experiment: Effect of the compound on the proliferation of Mino cells (MTS); format: cell-based; conditions: Homo sapiens, 72 h, 3 days, read-out: Inhibitory activity (IC50)
Method: Mino cells were cultured with 1640 plus […] and collected. The cell concentration was diluted according to the action time of 3 days, and 90 ul cell suspension was added to each well of the 96-well cell plate to make the cell count to be 8000. 10 ul of DMSO with a final concentration of 0.2% was added to the control cell wells. The compound was diluted 5-fold with the 10 mM stock solution, and 10 ul was also added to the compound cell wells (the final concentration of DMSO was 0.2%). The cells were placed in a 37° C., […] incubator and incubated for 3 days. After preparing the reaction solution according to the MTS kit (Promega, G5430), 20 μL was added to each well, incubated in a 37° C., 5% CO2 incubator for 3-4 h. Read the 490 nm absorbance value with a microtiter plate, and used the 690 nm absorbance value as the background value and OD490-OD690 as the final initial data. The formula for calculating the inhibition rate of the compound was: inhibition rate=(OD DMSO-ODcompound)/(ODDMSO-Oblank)×100%. The compound's proliferation inhibition IC50 was fitted by Graph Pad Prism 5.0. The experiment was repeated three times, and three parallel experiments were used to calculate the average and standard deviation each time.

| Structure (SMILES) | IC50 (MM.1S cells) [nM] | IC50 (Mino cells) [nM] |
| --- | --- | --- |
| O=C1CCC(N2Cc3c(CCCc4cnc(-c5ccc(OC(F)(F)F)cc5)o4)cccc3C2=O)C(=O)N1 (centres unmarked) [Compound 63, 3-(1-oxo-4-(3-(2-(4-(trifluoromethoxy)phenyl)oxazol-5-yl)propyl)isoindolin-2-yl) piperidine-2,6-dione] | > 20000 |  |
| O=C1CCC(N2Cc3c(OCC4CN(c5ccc(OC(F)(F)F)cc5)C4)cccc3C2=O)C(=O)N1 (centres unmarked) [Compound 64, 3-(1-oxo-4-((1-(4-trifluoromethoxyphenyl)azetidin-3-)methoxy)isoindolin-2-) piperidine-2,6-dione] | 150 to 20000 |  |
| O=C1CCC(N2Cc3c(OC[C@H]4CCN(c5ccnc6ccccc56)C4)cccc3C2=O)C(=O)N1 (stereo partly drawn) [Compound 65, 3-(1-oxo-4-(((S)-1-(quinolin-4-)pyrrolin-3-)methoxy)isoindolin-2-) piperidine-2,6-dione] | 150 to 20000 |  |
| O=C1CCC(N2Cc3c(OC[C@@H]4CCN(c5ccnc6ccccc56)C4)cccc3C2=O)C(=O)N1 (stereo partly drawn) [Compound 66, 3-(1-oxo-4-(((R)-1-(quinolin-4-)pyrrolin-3-)methoxy)isoindolin-2-) piperidine-2,6-dione] | 150 to 20000 |  |
| O=C1CCC(N2Cc3c(OCCC4CN(c5ccnc6ccccc56)C4)cccc3C2=O)C(=O)N1 (centres unmarked) [Compound 69, 3-(1-oxo-4-(2-(1-(quinolin-4-)azetidin-3-)ethoxy)isoindolin-2-) piperidine-2,6-dione] | 150 to 20000 |  |
| O=C1CCC(N2Cc3c(OCc4cnc(-c5ccc(OC(F)(F)F)cc5)o4)cc(F)cc3C2=O)C(=O)N1 (centres unmarked) [Compound 80, 3-(6-fluoro-1-oxo-4-((2-(4-(trifluoromethoxy)phenyl)oxazol-5-yl)methoxy)isoindolin-2-yl) piperidine-2,6-dione] | < 150 |  |
| O=C1CCC(N2Cc3c(NCc4cnc(-c5ccc(OC(F)(F)F)cc5)o4)cccc3C2=O)C(=O)N1 (centres unmarked) [Compound 82] | < 150 |  |
| Cc1c(COc2cccc3c2CN(C2CCC(=O)NC2=O)C3=O)cnn1-c1c(Cl)cc(C(F)(F)F)cc1Cl (centres unmarked) [Compound 83] | < 150 |  |
| Cc1c(COc2cccc3c2CN(C2CCC(=O)NC2=O)C3=O)cnn1-c1c(Cl)cc(OC(F)(F)F)cc1Cl (centres unmarked) [Compound 84, 3-(4-((1-(2,6-dichloro-4-(trifluoromethoxy)phenyl)-5-methyl-1H-pyrazol-4-yl)methoxy)-1-isoindolin-2-1) piperidine-2,6-dione] | < 150 |  |
| Cc1cc(COc2cccc3c2CN(C2CCC(=O)NC2=O)C3=O)nn1-c1c(Cl)cc(OC(F)(F)F)cc1Cl (centres unmarked) [Compound 85, 3-(4-((1-(2,6-dichloro-4-(trifluoromethoxy)phenyl)-5-methyl-1H-pyrazol-3-yl)methoxy)-1-isoindolin-2-yl)piperidine-2,6-dione] | < 150 |  |
| O=C1CCC(N2Cc3c(OCc4cn(C56CC7CC(CC(O)(C7)C5)C6)nn4)cccc3C2=O)C(=O)N1 [Compound 86, 3-(4-((1-((1R, 3S, 5R, 7S)-3-hydroxyadamantan-1-yl)-1H-1,2,3-triazol-4-yl)methoxy)-1-isoindolin-pyridin-2-yl) piperidin-2,6-dione] | > 20000 |  |
| O=C1CCC(N2Cc3c(OCc4cn(C5C6CC7CC(C6)CC5C7)nn4)cccc3C2=O)C(=O)N1 [Compound 87, 3-(4-((1-((1R, 3R, 5R, 7R)-adamantan-2-yl)-1H-1,2,3-triazol-4-yl)methoxy)-1-isoindolin-2-yl) piperidin-2,6-dione] | < 150 |  |
| CC(n1cc(COc2cccc3c2CN(C2CCC(=O)NC2=O)C3=O)nn1)C12CC3CC(CC(C3)C1)C2 [Compound 88, 3-(4-((1-(1-((1S, 3S)-adamantan-1-yl)ethyl)-1H-1,2,3-triazol-4-yl)methoxy)-1-isoindolin-2-yl) piperidin-2,-6-dione] | < 150 |  |
| C[C@]12CC3CC(n4cc(COc5cccc6c5CN(C5CCC(=O)NC5=O)C6=O)nn4)(C1)C[C@@](C)(C3)C2 (stereo partly drawn) [Compound 89, 3-(4-((1-((1R, 3R, 5S, 7R)-3,5-dimethyladamantin-1-yl)-1H-1,2,3-triazol-4-yl)methoxy)-1-isoindolin-2-yl) piperidin-2,6-dione] | > 20000 |  |
| O=C1CCC(N2Cc3c(OCc4cnc(-c5ccc(Cl)c(Cl)c5)o4)cccc3C2=O)C(=O)N1 (centres unmarked) [Compound 91, 3-(4-((2-(3,4-dichlorophenyl)oxazol-5-yl)methoxy)-1-oxoisoindol-2-yl) piperidine-2,6-dione] | < 150 |  |
| O=C1CCC(N2Cc3c(OCc4cn(-c5ccc(OC6CC6)cc5F)nn4)cccc3C2=O)C(=O)N1 (centres unmarked) [Compound 92, 3-(4-((1-(4-cyclopropoxy-2-fluorophenyl)-1H-1,2,3-triazol-4-yl)methoxy)-1-oxoisoindol-2-yl) piperidine-2,6-dione] | 150 to 20000 |  |
| O=C1CCC(N2Cc3c(NCc4cnc(-c5ccccc5OC(F)(F)F)o4)cccc3C2=O)C(=O)N1 (centres unmarked) [Compound 94] | 150 to 20000 |  |

Second part, led by results:

| IC50 (MM.1S cells) [nM] | Structure (SMILES) | IC50 (Mino cells) [nM] |
| --- | --- | --- |
| < 150 | O=C1CCC(N2Cc3c(OCc4cn(-c5ccc(N6CCOCC6)cc5)nn4)cccc3C2=O)C(=O)N1 (centres unmarked) [Compound 19, 3-(4-((1-(4-morpholinophenyl)-1H-1,2,3-triazol-4-)methoxy)-1-oxoisoindolin-2-) piperidine-2,6-dione] | 150 to 20000 |
| < 150 | O=C1CCC(N2Cc3c(OCc4cn(-c5ccc6ncsc6c5)nn4)cccc3C2=O)C(=O)N1 (centres unmarked) [Compound 23, 3-(4-((1-(benzo [d]thiazol-6)-1H-1,2,3-triazol-4-(methoxy)-1-oxoisoindolin-2-)piperidine-2,6-dione] | < 150 |
| < 150 | O=C1CCC(N2Cc3c(OCc4cn(-c5ccc(O[C@@H]6CCOC6)cc5)nn4)cccc3C2=O)C(=O)N1 (stereo partly drawn) [Compound 24, 3-(1-oxo-4-((1-(4-(((R)-tetrahydrofuran-3-)oxy)phenyl)-1H-1,2,3-triazol-4-)methoxy)isoindolin-2-)piperidine-2,6-dione] | < 150 |
| < 150 | O=C1CCC(N2Cc3c(OCc4cn(-c5ccc(O[C@H]6CCOC6)cc5)nn4)cccc3C2=O)C(=O)N1 (stereo partly drawn) [Compound 25, 3-(1-oxo-4-((1-(4-(((S)-tetrahydrofuran-3-)oxy)phenyl)-1H-1,2,3-triazol-4-)methoxy)isoindolin-2-)piperidine-2,6-dione] | < 150 |
| < 150 | O=C1CCC(N2Cc3c(OCc4cn(-c5ccc(OCC6CCOCC6)cc5)nn4)cccc3C2=O)C(=O)N1 (centres unmarked) [Compound 29, 3-(1-oxo-4-((1-(4-((2H-tetrahydropyran-4-)methoxy)phenyl)-1H-1,2,3-triazol-4-)methoxy)isoindolin-2-) piperidine-2,6-dione] | 150 to 20000 |
| < 150 | O=C1CCC(N2Cc3c(OCc4ncc(-c5ccc(OC(F)(F)F)cc5)s4)cccc3C2=O)C(=O)N1 (centres unmarked) [Compound 39, 3-(1-oxo-4-((5-(4-trifluoromethoxyphenyl)thiazol-2-)methoxy)isoindolin-2-) piperidine-2,6-dione] | 150 to 20000 |
| < 150 | O=C1CCC(N2Cc3c(OCC4CCN(c5ccnc6ccccc56)CC4)cccc3C2=O)C(=O)N1 (centres unmarked) [Compound 67, 3-(1-oxo-4-((1-(quinolin-4-)piperidin-4-)methoxy)isoindolin-2-) piperidin-2,6-dione] |  |
| < 150 | O=C1CCC(N2Cc3c(OCCC4CCN(c5ccnc6ccccc56)CC4)cccc3C2=O)C(=O)N1 (centres unmarked) [Compound 68, 3-(1-oxo-4-(2-(1-(quinolin-4-)piperidin-4-)ethoxy)isoindolin-2-) piperidin-2,6-dione] |  |
| < 150 | O=C1CCC(N2Cc3c(OCC4CCC(c5ccc(OC(F)(F)F)cc5)CC4)cccc3C2=O)C(=O)N1 (centres unmarked) [Compound 72, 3-(1-oxo-4-((4-(4-(trifluoromethoxy)phenyl)cyclohexyl)methoxy)isoindolin-2-) piperidine-2,6-dione] |  |
| < 150 | O=C1CCC(N2Cc3c(OCC4CCN(c5ccc(OC(F)(F)F)cc5)CC4)cccc3C2=O)C(=O)N1 (centres unmarked) [Compound 73, 3-(1-oxo-4-((1-(4-(trifluoromethoxy)phenyl)piperidin-4-)methoxy)isoindolin-2-) piperidin-2,6-dione] |  |
| < 150 | [2H]c1c([2H])c([2H])c(-n2cc(COc3cccc4c3CN(C3CCC(=O)NC3=O)C4=O)nn2)c([2H])c1[2H] (centres unmarked) [Compound 78, 3-(1-oxo-4-((1-(phenyl-D5)-1H-1,2,3-triazol-4-yl)methoxy)isoindolin-2-yl) piperidine-2,6-dione] |  |
| < 150 | [2H]c1c([2H])c([2H])c(-n2cc(COc3cc(F)cc4c3CN(C3CCC(=O)NC3=O)C4=O)nn2)c([2H])c1[2H] (centres unmarked) [Compound 79, 3-(6-fluoro-1-oxo-4-((1-(phenyl-D5)-1H-1,2,3-triazol-4-yl)methoxy)isoindolin-2-yl) piperidine-2,6-dione] |  |
